Assay results taken from patent US20230355599A1, “BIOMARKERS FOR CBL, AND COMPOSITIONS AND METHODS FOR THEIR USE” (NURIX THERAPEUTICS, INC., priority 2022, published 2023).

Legend:
Format in all cases: cell-based
phosphorylated ZAP70 [1] = assay: Phosphorylated ZAP70 in cynomolgus macaque CD8+ T cells from whole blood in vitro (flow cytometry); details: Macaca fascicularis, T-cell, whole blood from six cynomolgus macaques, 2 hrs 37° C., 2 μg/mL anti-CD3 & anti-CD28 + crosslinker 60 minutes, read-out: Average mean EC50±standard deviation, phosphorylated ZAP70
Protocol: (§1) To assess these candidate clinical proximal biomarkers of Cbl-b inhibition on T cells, pharmacodynamic analysis was performed. Whole blood was obtained from cynomolgus macaque donors, then incubated with increasing concentrations of Compound 23. The response to Cbl-b inhibition on phosphorylated HS1, ZAP70 and PLCγ2 was measured in CD8^+ T cells using flow cytometry. This technique is highly quantitative and can measure multiple phosphorylation markers in different cell populations within the same sample.
(§2) DMSO (Dimethyl sulfoxide) was used to reconstitute Compound 23. Final concentration of DMSO was 0.05% in media for in vitro assays. […]
(§3) Stained cells were run on an Attune NxT Acoustic Focusing Flow Cytometer (Thermo Fisher, cat. No. A29004), and data was analyzed using FlowJo (v10.6.1) and GraphPad Prism (v8.00) software. Single lymphocytes were gated for CD8^+ cells (CD45^+/CD8^+) cells, and population frequencies were calculated for each population. The data is quantified by the percent positive. […] As protein becomes phosphorylated the fluorescence increases resulting in a larger fraction of the cells entering that gate. Each population was evaluated for % positive pY759-PLCγ2, pY397-HS1 levels, pY319/Syk (Y352)-ZAP70 levels.

phosphorylated HS1 [2] = assay: Phosphorylated HS1 in cynomolgus macaque CD8+ T cells from whole blood in vitro (flow cytometry); details: Macaca fascicularis, T-cell, whole blood from six cynomolgus macaques, 2 hrs 37° C., 2 μg/mL anti-CD3 & anti-CD28 + crosslinker 60 minutes, read-out: Average mean EC50±standard deviation, phosphorylated HS1
Protocol: as §1, §2, §3

phosphorylated HS1 [3] = assay: Phosphorylated HS1 in human CD8+ T cells from whole blood in vitro (flow cytometry)
Protocol: as §1, with “human donors and” for “cynomolgus macaque donors, then”, “HS1, PLCγ2, and” for “HS1,”, “ZAP70” for “ZAP70 and PLCγ2”
(§4) For pharmacodynamic analysis, whole blood was obtained from six human donors (BioIVT) and used for flow cytometry assays to evaluate phosphorylated biomarkers HS1, PLCγ2, and ZAP70 in CD8^+ T cells.
(§5) Whole blood was collected in a collection tube coated with sodium heparin. […]
as §3, with “levels. […]” for “levels.”

phosphorylated ZAP70 [4] = assay: Phosphorylated ZAP70 in human CD8+ T cells from whole blood in vitro (flow cytometry); details: T-cell, whole blood from six human donors, 2 hrs 37° C., anti-CD3/anti-CD28 + crosslinker 60 minutes, read-out: Average mean EC50±standard deviation, phosphorylated ZAP70
Protocol: as §1, with “human donors and” for “cynomolgus macaque donors, then”, “HS1, PLCγ2, and” for “HS1,”, “ZAP70” for “ZAP70 and PLCγ2”
as §4, §5, §3

C[C@H]1CCCN(Cc2cc3c(c(C(F)(F)F)c2)CN(c2cccc([C@]4(c5nncn5C)C[C@@H](C)C4)c2)C3=O)C1 [Compound 23]
EC50 (phosphorylated ZAP70 [1]): 173 ± 177 nM | EC50 (phosphorylated HS1 [2]): 230 ± 150 nM | EC50 (phosphorylated HS1 [3]; T-cell, whole blood from six human donors, 2 hrs 37° C., anti-CD3/anti-CD28 + crosslinker 60 minutes, CD8+ T cells, read-out: Average mean EC50±standard deviation, phosphorylated HS1): 89 ± 7.91 nM | phosphorylated HS1 in human whole blood (FIG. 7) (phosphorylated HS1 [3]; human donors n=6, two hours at 37° C., anti-CD3 and anti-CD28 co-stimulation, crosslinked): concentration-dependent increase | EC50 (phosphorylated ZAP70 [4]): 120 ± 8.97 nM
